Reference: US9162992B2, “Compounds and compositions for treatment of breathing control disorders or diseases” (GALLEON PHARMACEUTICALS, INC., priority 2010, dated 2015)
≈ marks a conversion by molar mass, not a printed value. Where “and” joins values, the source holds several entries; their conditions need not be identical. Equal values may be shown once. Read-outs that look alike come from different tables or passages of the source.

Tests used:
Format in all cases: physicochemical
[1] = Solubility in solvents and IV solutions
Protocol: The solubility of (XXXXVI) and XXXV was evaluated in various solvents and IV solutions. Due to limits on the API supply at the time the study was conducted, most of the solvent systems were evaluated to a level of only 100 mg/mL even if the solution was not saturated at this level. Only in water was an attempt made to reach saturation solubility, regardless of how high that solubility might be. Solubility of the salt/free base in each solvent was evaluated in duplicate.
For solubility in water, drug was added with intermittent shaking to ensure that excess undissolved drug is present indicating saturation […]. The filtrates were diluted appropriately and analyzed for (XXXV) concentration by HPLC.

[2] = Solubility as a function of pH (100 mM citric acid, room temperature); conditions: for solubility / solubility thermodynamic: thermodynamic from solid; for solubility thermodynamic: 100 mM citric acid buffer, read-out: (XXXVI) concentration; for (XXXVI) concentration: not saturated
Protocol: A solution of (XXXVI) of concentration ˜[…] in 100 mM citric acid at pH 2.5 was prepared. About 150 μL aliquots of this solution were transferred into 6 separate glass HPLC vials. Each aliquot was titrated with 6N sodium hydroxide to different pH values in the range 3-5.5 (Table 12A). All the samples, including the solution at pH 2.5, were shaken overnight at room temperature using a gyratory shaker. After shaking, the samples were evaluated visually for the presence of precipitate and were then spin filtered through 0.45 μm syringe tip filters (4 mm diameter) at 3,000 rpm for 20 min. The final pH values of the filtrates were measured. The filtrates were then diluted appropriately and analyzed for (XXXV) concentration using the HPLC assay.
This equation is a simplified representation of solubility equilibrium for weak bases that assumes that total solubility is much larger than the solubility of the free base in the pH range of interest: log S=log S0+log(1+10^pKa-pH) Equation 1 where, ‘S’ is total solubility; ‘S0’ is the solubility of the free base.

pKa = assay: pKa

With `CCCNc1nc(NCCC)nc(N(C)OC)n1` [XXXV, N-(4,6-Bis-n-propylamino-[1,3,5]triazin-2-yl)-N,O-dimethyl-hydroxylamine] the solubility ([1]; organic solvent or mixture, thermodynamic from solid, solubility) was over 90 mg/mL, the solubility ([1]; water, thermodynamic from solid, Solubility) was about 0.21 mg/mL (≈ 0.826 mM) and the solubility ([2]; aqueous buffer) was 0.18 mg/mL (≈ 0.708 mM). The solubility ([2]; pH 3.16, aqueous buffer) was 50 mg/mL (≈ 197 mM), the solubility ([2]; pH 3.46, aqueous buffer) was 25 mg/mL (≈ 98.3 mM) and the “pH dependence of solubility” value ([2]; pH 3.5) was “solubility was high at pH 3.5 or lower”. The solubility ([2]; pH 3.86, aqueous buffer) was 10 mg/mL (≈ 39.3 mM).
With `CCCNc1nc(NCCC)nc(N(C)OC)n1.O=S(=O)(O)O` [XXXVI, N-(4,6-Bis-n-propylamino-[1,3,5]triazin-2-yl)-N,O-dimethyl-hydroxylamine hydrogen sulfate] the solubility ([1]; 0.9% NaCl, listed as (XXXV) hydrogen sulfate salt, hydrogen sulfate) was over 201.4 mg/mL, the solubility ([1]; 30% PEG-400, listed as (XXXV) hydrogen sulfate salt, hydrogen sulfate) was >197.0 mg/mL and >198.4 mg/mL and the solubility ([1]; 30% Propylene Glycol, listed as (XXXV) hydrogen sulfate salt, hydrogen sulfate) was over 89.47 mg/mL. The solubility ([1]; 70% PEG-400, listed as (XXXV) hydrogen sulfate salt, hydrogen sulfate) was >85.28 mg/mL and >91.43 mg/mL, the solubility ([1]; 70% Propylene Glycol, listed as (XXXV) hydrogen sulfate salt, hydrogen sulfate) was over 92.43 mg/mL and the solubility ([1]; Acetonitrile, listed as (XXXV) hydrogen sulfate salt, hydrogen sulfate) was 68.5 mg/mL and 67.1 mg/mL. The solubility ([1]; Ethanol, listed as (XXXV) hydrogen sulfate salt, hydrogen sulfate) was over 212.2 mg/mL, the solubility ([1]; Methanol, listed as (XXXV) hydrogen sulfate salt, hydrogen sulfate) was over 98.52 mg/mL and the solubility ([1]; PEG-400 (100%), listed as (XXXV) hydrogen sulfate salt, hydrogen sulfate) was 35.74 mg/mL. For the same compound, the solubility ([1]; Propylene Glycol (100%), listed as (XXXV) hydrogen sulfate salt, hydrogen sulfate) was over 94.65 mg/mL, the solubility ([1]; Water, listed as (XXXV) hydrogen sulfate salt, hydrogen sulfate) was 414.5 mg/mL and 441.5 mg/mL and the solubility ([1]; aqueous with cosolvent or surfactant or cyclodextrin, thermodynamic from solid, 30% PEG-400, read-out: Solubility) was about 198 mg/mL. For the same compound, the solubility ([1]; aqueous with cosolvent or surfactant or cyclodextrin, thermodynamic from solid, 30% Propylene Glycol, read-out: Solubility) was over 93.2 mg/mL, the solubility ([1]; aqueous with cosolvent or surfactant or cyclodextrin, thermodynamic from solid, 30% and 70% PEG-400, read-out: solubility) was at least 90 mg/mL and the solubility ([1]; aqueous with cosolvent or surfactant or cyclodextrin, thermodynamic from solid, 30%, 70% and 100% propylene glycol, read-out: solubility) was at least 90 mg/mL. For the same compound, the solubility ([1]; aqueous with cosolvent or surfactant or cyclodextrin, thermodynamic from solid, 70% PEG-400, read-out: Solubility) was at least 90 mg/mL, the solubility ([1]; aqueous with cosolvent or surfactant or cyclodextrin, thermodynamic from solid, 70% Propylene Glycol, read-out: Solubility) was over 87.8 mg/mL and the solubility ([1]; ethanol and methanol) was “freely soluble”. It also gave a solubility ([1]; organic solvent or mixture, thermodynamic from solid, Acetonitrile, read-out: Solubility) of about 68 mg/mL, a solubility ([1]; organic solvent or mixture, thermodynamic from solid, Ethanol, read-out: Solubility) of over 211 mg/mL and a solubility ([1]; organic solvent or mixture, thermodynamic from solid, Methanol, read-out: Solubility) of over 109 mg/mL. The solubility ([1]; organic solvent or mixture, thermodynamic from solid, PEG-400 (100%), read-out: Solubility) was about 36 mg/mL, the solubility ([1]; organic solvent or mixture, thermodynamic from solid, Propylene Glycol (100%), read-out: Solubility) was over 92.1 mg/mL and the solubility ([1]; saline or isotonic, thermodynamic from solid, 0.9% NaCl, read-out: Solubility) was over 206 mg/mL. It also gave a solubility ([1]; saline or isotonic, thermodynamic from solid, 5% Dextrose, read-out: Solubility) of over 201 mg/mL, a solubility ([1]; saline or isotonic, thermodynamic from solid, IV solutions (0.9% saline and 5% dextrose), read-out: solubility) of at least 200 mg/mL and a solubility ([1]; water, thermodynamic from solid, Water, read-out: Solubility) of over 400 mg/mL. It also gave a solubility ([1]; water, thermodynamic from solid, water, IV solutions (0.9% saline and 5% dextrose), ethanol, methanol, 30%, 70% and 100% propylene glycol, read-out: solubility) of over 90 mg/mL, a solubility thermodynamic ([2]; aqueous buffer, target pH 4.0, final pH 3.79) of 20.8 mg/mL and a solubility thermodynamic ([2]; aqueous buffer, target pH 4.5, final pH 4.37) of 3.46 mg/mL. For the same compound, the solubility thermodynamic ([2]; aqueous buffer, target pH 5.0, final pH 4.52) was 2.73 mg/mL, the solubility thermodynamic ([2]; aqueous buffer, target pH 5.5, final pH 5.02) was 0.99 mg/mL and the “appearance afterwards Shaking” value ([2]; target pH 2.5) was “Clear solution”. For the same compound, the “(XXXVI) concentration” value ([2]; target pH 2.5, final pH 2.42) was 104.1, the “appearance afterwards Shaking” value ([2]; target pH 3.0) was “Clear solution” and the “(XXXVI) concentration” value ([2]; target pH 3.0, final pH 3.00) was 99.8. The “appearance afterwards Shaking” value ([2]; target pH 3.5) was “Clear solution”, the “(XXXVI) concentration” value ([2]; target pH 3.5, final pH 3.51) was 101.6 and the “appearance afterwards Shaking” value ([2]; target pH 4.0) was “Precipitate”. For the same compound, the “appearance afterwards Shaking” value ([2]; target pH 4.5) was “Precipitate”, the “appearance afterwards Shaking” value ([2]; target pH 5.0) was “Precipitate” and the “appearance afterwards Shaking” value ([2]; target pH 5.5) was “Precipitate”. For the same compound, the pKa (pKa) was 5.6.
